Measured values reported in article PMC6801448, “The Antioxidant and Antiproliferative Activities of 1,2,3-Triazolyl-L-Ascorbic Acid Derivatives” (International Journal of Molecular Sciences, 2019).

What was measured:
MCF-7 cells [1] = assay: Seahorse XF Cell Mito Stress Test, MCF-7; format: cell-based, Human
Description: The Seahorse XF Cell Mito Stress Test was used for measurements of mitochondrial respiration by direct assessment of the oxygen consumption rate (OCR), of treated and untreated cells on the Seahorse XFe24 Analyzer, (Agilent, Santa Clara, CA, USA). Key parameters of the mitochondrial function were measured by direct assessment of the OCR, by use of the Mito Stress Test (Agilent, Agilent, Santa Clara, CA, USA). The Mito Stress Test uses modulators of respiration that target components of the electron transport chain in the mitochondria. The compounds added to the reaction were: oligomycin, mitochondrial oxidative phosphorylation uncoupler carbonyl cyanide-4-(trifluoromethoxy)phenylhydrazone (FCCP), and the mix of rotenone and antymicin A. These were directly injected to the cell growth medium containing cells treated with selected L-ASA derivatives to determine the production of ATP, respiration at maximal level, and the non-mitochondrial respiration. Measured parameters were used for calculation of the proton leakage, spare respiratory capacity, and basal respiration. The assay was performed according to the manufacturer’s instructions (SeaHorse—Mito Stress Test: Agilent, Santa Clara, CA, USA). Briefly, selected compound 4e was tested due to its selective antiproliferative effect on MCF-7 cells. […] […] The experiment was performed with biological duplicates.

MCF-7 cells [2] = assay: Annexin V apoptosis detection assay; format: cell-based, Human
Description: A total of 2 × 10^4 MCF-7 cells were seeded into 8-well Nunc Lab-Tek II Chamber Slide system (Thermo Fischer Scientific, Waltham, MA, USA), and treated with compound 4e at 1 × IC50 and 2 × IC50 for 24 and 48 h. The assay (Annexin-V-FLUOS Staining kit, Roche Applied Science, Penzberg, Germany) was preformed according to the manufacturer protocol. Slides were analyzed by fluorescence microscopy (Zeiss Axio Observer Z1 Inverted Phase Contrast Fluorescent Microscope, Jena, Germany)).

[3] = system: SW620 (colorectal adenocarcinoma, metastatic); assay: MTT proliferation assay, SW620; format: cell-based; conditions: Homo sapiens, SW-620, 72 h
Method in brief: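 The 72 h proliferation test exposed cells, seeded at 5000 per well a day before, to compound concentrations spanning 0.01 μM to 100 μM. Viability was measured by MTT reduction over 3 h with absorbance at 570 nm, and IC50 values were derived by regression of the concentration–growth curves.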

[4] = system: tested cell lines (A549, CFPAC-1, HCT-116, HeLa, HepG2, MCF-7, SW620, WI-38, HFF-1); assay: MTT proliferation assay, whole tested cell panel; format: cell-based, Human; conditions: 0.01 µM to 100 µM, 72 h
Description: The C-6 substituted 1,2,3-triazole derivatives of L-ASA within the C5-OH group ([…], 4i, 4k−4t, and 4v) and with the C4=C5 double bond (7c−7g and 7i−7q) were evaluated against seven malignant tumor cell lines: lung adenocarcinoma (A549), ductal pancreatic adenocarcinoma (CFPAC-1), colorectal carcinoma (HCT-116), cervical carcinoma (HeLa), hepatocellular carcinoma (HepG2), breast adenocarcinoma (MCF-7), colorectal adenocarcinoma, and metastatic (SW620); as well as normal cell lines: lung fibroblasts (WI-38) and foreskin fibroblasts (HFF-1) (Table 3, Table S1, Supplementary Information). L-ASA was used as a positive control, and carboxyamidotriazole, a known antiproliferative agent that inhibits tumor cell growth, invasion, and metastasis, and 5-fluorouracil (5-FU), were used as reference compounds.
Human tumor cell lines HeLa (cervical carcinoma), SW620 (colorectal adenocarcinoma, metastatic), A549 (lung adenocarcinoma), MCF−7 (breast adenocarcinoma), CFPAC-1 (pancreatic adenocarcinoma, metastatic), HCT-116 (colorectal carcinoma), and HepG2 (hepatocellular carcinoma), and normal cell lines HFF-1 (foreskin fibroblasts) and WI-38 (immortalized human lung fibroblast), were from the US American Type Culture Collection (ATCC, Manassas, VA, USA). Cells were cultured in a liquid nutrient medium (Dulbecco’s Modified Eagle Medium, LONZA, Basel, Switzerland) supplemented with 10% fetal bovine serum (FBS, Gibco, Grand Island, NY, USA), 2 mM L-glutamine (GIBCO, Grand Island, NY, USA), 100 μg/mL penicillin, and 100 μg/mL streptomycin (LONZA, Basel, Switzerland), in an incubator (NÜVE, Ankara, Turkey), at a humid atmosphere with 5% CO2 at 37 °C. Trypsin/EDTA Solution (Lonza, Basel, Switzerland), was used for cell passaging and cell detachment.
Adherent cells were seeded on 96 well microtiter plates (Falcon, New York, NY, USA) at a seeding density of 5000 cells per well, added in 150 μL of cell suspension in a nutrient medium. 24 h after seeding, cells were treated with compound 4b–4g, 4i, 4k–4t, 4v, 7c–7g, and 7i–7q dilutions in the range of 0.01 μM to 100 μM. L-ascoric acid (Sigma Aldrich, Darmstadt, Germany) and Carboxyamidotriazole (Sigma Aldrich, Darmstadt, Germany) were used as control compounds. Incubation of the cells with the compounds were performed for 72 h in a 5% CO2, in humid atmosphere at 37 °C. After incubation, nutrient medium was removed and 40 μL of the MTT reagent ([…]-2,5-diphenyltetrazole bromide (Invitrogen, Carlsbad, CA, USA) was added to each well. 3 h after incubation, 160 μL of DMSO (VWR CHEMICALS, Radnor, PA, USA) were added to each well to dissolve the crystals of purple formazane. The absorbance was measured at 570 nm (TECAN SUNRISE Microtiter plate reader (Männedorf, Switzerland). The experimentally measured optical densities (OD) were converted to the PG (percentage of growth), using the formulas according to the protocol assumed by NIH (National Institute of Health). The IC50 values (concentration causing 50% cell growth inhibition) for each compound were calculated by regression analysis of the survival count curve of the concentrations of the tested compounds. The results were processed in Excel 2010 (Microsoft, Redmond, WA, USA).

[5] = MCF-7, 24 h, 6.72 µM (1 × IC50)
[6] = MCF-7, 24 h, 13.44 µM (2 × IC50)
[7] = MCF-7, 24 h, 1 × IC50, versus untreated cells
[8] = MCF-7, 48 h, 6.72 µM (1 × IC50)
[9] = MCF-7, 48 h, 13.44 µM (2 × IC50)

`O=C1O[C@H]([C@@H](O)Cn2cc(-c3ccc(Br)cc3)nn2)C(O)=C1O` [Compound 4e, 6-[4-(4-bromophenyl)-1,2,3-triazol-1-yl]-6-deoxy-L-ascorbic acid] was tested, and the “basal respiration and ATP production” value (MCF-7 cells [1]; MCF-7, 24 h, IC50 concentration (6.72 µM) and 2 × IC50 (13.44 µM)) was “increased the basal respiration and ATP production”, the cellular mitochondrial metabolism (MCF-7 cells [1]; MCF-7, 24 h, lower tested concentration (3.36 µM)) was “lowered cellular mitochondrial metabolism” and the “Early Apoptosis (%)” value (MCF-7 cells [2]; [5]) was 30.6%. The “Late Apoptosis (%)” value (MCF-7 cells [2]; [5]) was 6.4%, the “Necrosis (%)” value (MCF-7 cells [2]; [5]) was 0.8% and the “Early Apoptosis (%)” value (MCF-7 cells [2]; [6]) was 5.3%. For the same compound, the “Late Apoptosis (%)” value (MCF-7 cells [2]; [6]) was 38.1%, the “Necrosis (%)” value (MCF-7 cells [2]; [6]) was 15.9% and the “increase in early apoptotic cell population” value (MCF-7 cells [2]; [7]) was 12.4%. The “increase in late apoptotic cell population” value (MCF-7 cells [2]; [7]) was 2.0%, the “Early Apoptosis (%)” value (MCF-7 cells [2]; [8]) was 46.6% and the “Late Apoptosis (%)” value (MCF-7 cells [2]; [8]) was 4.2%. For the same compound, the “Necrosis (%)” value (MCF-7 cells [2]; [8]) was 0.8%, the “Early Apoptosis (%)” value (MCF-7 cells [2]; [9]) was 9.1% and the “Late Apoptosis (%)” value (MCF-7 cells [2]; [9]) was 2.3%. The “Necrosis (%)” value (MCF-7 cells [2]; [9]) was 0%, the “percentage of cells in early apoptosis higher than in untreated cells” value (MCF-7 cells [2]; MCF-7, 48 h, 1 × IC50, versus untreated cells) was 35.2% and the IC50 [3] was > 100 µM.
With `O=C1O[C@H]([C@@H](O)CO)C(O)=C1O` [L-ASA, L-ascorbic acid] the mitochondrial activity (MCF-7 cells [1]; 24 h, lower concentration (50 mM), Figure 5 panel A (MCF-7 and HFF-1)) was “did not act on the mitochondrial activity”, the “basal cell respiration and ATP production” value (MCF-7 cells [1]; MCF-7, 24 h, higher concentrations) was “decreased the basal cell respiration and ATP production” and the IC50 [3] was > 100 µM. For the same compound, the “antiproliferative / cytotoxic effect on the tested cell lines (in words)” value [4] was “no effects on the cell growth”.
